Patent publication US8003668B2, “Amino-substituted 8-N-benzimidazoles and methods for their use in blood sugar disorders” (Sanofi-Aventis, priority 2005, dated 2011)

Target: T1, DPP-IV from porcine kidneys (Sus scrofa, UniProt P22411)
T1 construct: DPP-IV from porcine kidneys (Sigma, Munich); purchased Sigma, Munich; host or cells: porcine kidney (tissue-derived enzyme)
Assay: Measurement of the DPP-IV activity (fluorimetric, H-Ala-Pro-AFC substrate)
Assay type: biochemical
Conditions: inhibitor at 30 μm; H-Ala-Pro-AFC 15 μm; DPP-IV 1 mU/ml; Tris/HCl pH 7.4; room temperature
Protocol: The efficacy of the compounds was tested as follows: • Measurement of the DPP-IV Activity: • Material: • DPP-IV from porcine kidneys (Sigma, Munich) • H-Ala-Pro-AFC (Bachem, Weil am Rhein) • Test conditions: • DPP-IV (1 mU/ml, end concentration) • H-Ala-Pro-AFC (15 μm end concentration) in Tris/HCl (40 mM, pH 7.4), total volume 0.2 ml
The reaction was performed at room temperature for different periods (typically 10 minutes) and stopped at the end of the reaction by adding 20 μl of ZnCl2 (1 M). The conversion of H-Ala-Pro-AFC was determined fluorimetrically by measuring the emission at 535 nm on excitation at 405 nm. In the case of addition of inhibitors, the buffer volume added was adjusted such that a total volume of the test mixture of 200 μl was maintained.
% inhibition at a fixed concentration was calculated as follows: (1−enzyme activityinhibited reaction/enzyme activityuninhibited reaction)×100
IC50 values for inhibitors were determined by varying the inhibitor concentrations at the given substrate concentration of 15 μM. Ki and Km values were determined by corresponding variation of substrate and inhibitor concentration as described (Dixon, M. and Webb, E.C.(1979) Enzymes, third edition, pp. 47-206, Academic Press). […]

T1 sequence (P22411 whole entry): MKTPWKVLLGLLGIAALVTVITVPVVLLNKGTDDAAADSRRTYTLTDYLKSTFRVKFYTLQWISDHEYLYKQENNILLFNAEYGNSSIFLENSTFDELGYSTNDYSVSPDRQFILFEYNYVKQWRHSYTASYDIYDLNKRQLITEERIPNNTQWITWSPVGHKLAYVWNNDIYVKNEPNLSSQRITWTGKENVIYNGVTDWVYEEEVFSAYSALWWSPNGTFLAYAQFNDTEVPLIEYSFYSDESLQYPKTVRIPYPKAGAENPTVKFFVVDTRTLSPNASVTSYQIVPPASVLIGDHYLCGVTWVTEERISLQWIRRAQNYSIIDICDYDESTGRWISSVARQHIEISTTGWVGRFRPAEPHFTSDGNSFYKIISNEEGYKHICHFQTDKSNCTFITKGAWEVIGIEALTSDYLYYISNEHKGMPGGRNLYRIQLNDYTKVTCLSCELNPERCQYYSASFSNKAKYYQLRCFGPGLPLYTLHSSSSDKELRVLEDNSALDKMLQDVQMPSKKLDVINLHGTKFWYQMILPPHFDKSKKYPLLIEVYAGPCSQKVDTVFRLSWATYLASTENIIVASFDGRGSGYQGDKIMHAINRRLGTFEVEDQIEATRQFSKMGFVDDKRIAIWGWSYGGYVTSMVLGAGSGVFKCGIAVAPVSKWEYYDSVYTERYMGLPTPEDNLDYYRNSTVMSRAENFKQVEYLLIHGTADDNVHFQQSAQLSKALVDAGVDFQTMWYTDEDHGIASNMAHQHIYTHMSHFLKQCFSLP

CC(C)=CCn1c(N2CCC[C@@H](N)C2)nc2ccc(NS(=O)(=O)c3ccccc3)cc21.O=C(O)C(F)(F)F [Example 1, R-N-[2-(3-R-Aminopiperidin-1-yl)-1-(3-methylbut-2-enyl)-1H-benzimidazol-6-yl]-benzenesulfonamide trifluoroacetic acid salt]
% inhibition at 30 μm: 56%
